Patent publication EP0202903A2, “Control of ectoparasites” (priority 1985, dated 1986)

Test system: guinea pigs
Experiment: Guinea pig systemic test: death of the treated guinea pig before blood sampling
Type: in vivo
Procedure: Adult guinea pigs were used in this test system. The compounds to be tested were dissolved in aqueous polyvinyl pyrrolidone or in polyethylene glycol 200, and an appropriate amount of the solution was administered by intraperitoneal injection. Various doses of the compound were used, as named in the tables below.
Blood was drawn from the guinea pigs at different times, shown in the tables below, and the samples of blood were centrifuged. Dental wicks were saturated with the blood serum, and were then exposed in Petri dishes to adult stable flies or adult house flies; blow fly larvae were exposed in test tubes. Various species were used in various tests. After 24 hours, the insects were examined, and the number of dead were counted.

[1] = 10 mg./kg. intraperitoneal, sampling at 6 hours
[2] = 10 mg./kg. intraperitoneal, sampling at 24 hours
[3] = 25 mg./kg. intraperitoneal, sampling at 6 hours
[4] = 100 mg./kg. intraperitoneal, sampling at 24 hours
[5] = 25 mg./kg. intraperitoneal, sampling at 2 hours
[6] = 25 mg./kg. intraperitoneal, sampling at 48 hours

Measured: Dead (guinea pig died before its blood was sampled)

O=C(CC(=O)C(F)(F)C(F)(F)C(F)(F)F)c1ccc(Cl)s1 [Example 1, 1-(5-Chlorothien-2-yl)-3-perfluoropropyl-1,3-propanedione]
Dead: 5 mg./kg. intraperitoneal, sampling at 24 hours | [1] | [2] | 10 mg./kg. intraperitoneal, sampling at 48 hours | 25 mg./kg. intraperitoneal, sampling at 4 hours | [3] | 30 mg./kg. intraperitoneal, sampling at 6 hours | 40 mg./kg. intraperitoneal, sampling at 6 hours | 50 mg./kg. intraperitoneal, sampling at 4 hours | 50 mg./kg. intraperitoneal, sampling at 6 hours | 50 mg./kg. intraperitoneal, sampling at 24 hours | [4]

O=C(CC(=O)C(F)(F)C(F)(F)C(F)(F)F)c1cc(Cl)sc1Cl [Example 3, 1-(2,5-Dichlorothien-3-yl)-3-perfluoropropyl-1,3-propanedione]
Dead: [2] | [3] | 25 mg./kg. intraperitoneal, sampling at 24 hours

O=C(CC(=O)C(F)(F)C(F)(F)C(F)(F)F)c1ccc([N+](=O)[O-])cc1.[Na] [Example 4, 1-(4-Nitrophenyl)-3-perfluoropropyl-1,3-propanedione, sodium salt]
Dead: [4]

O=C(CC(=O)C1(F)C(F)(F)C(F)(F)C(F)(F)C(F)(F)C1(F)F)c1ccc(Cl)s1 [Example 5, 1-(5-Chlorothien-2-yl)-3-perfluorocyclo-hexyl-1,3-propanedione]
Dead: 25 mg./kg. intraperitoneal, sampling at 5 hours

O=C(CC(=O)C(F)(F)C(F)(F)C(F)(F)F)c1cc(Cl)c(Cl)s1 [Example 7, l-(4,5-Dichlorothien-2-yl)-3-perfluoropropyl-1,3-propanedione]
Dead: [2]

O=C(CC(=O)C(F)(F)C(F)(F)C(F)(F)F)c1ccc(Cl)cc1 [Example 8, 1-(4-Chlorophenyl)-3-perfluoropropyl-1,3-propanedione]
Dead: 10 mg./kg. intraperitoneal, sampling at 5 hours | [5] | [6] | 50 mg./kg. intraperitoneal, sampling at 2 hours | 100 mg./kg. intraperitoneal, sampling at 2 hours

O=C(CC(=O)C(F)(F)C(F)(F)C(F)(F)F)c1cccc(C(F)(F)F)c1.[Na] [Example 12, 1-Perfluoropropyl-3-(3-trifluoromethylphenyl)-1,3-propanedione, sodium salt]
Dead: [3] | [6]

O=C(CC(=O)C(F)(F)C(F)(F)C(F)(F)F)c1ccc(C(F)(F)F)cc1.[Na] [Example 13, 1-Perfluoropropyl-3-(4-trifluoromethylphenyl)-1,3-propanedione, sodium salt]
Dead: [5]

O=C(CC(=O)C(F)(F)C(F)(F)C(F)(F)F)c1ccc(C(F)(F)F)cc1 [Example 14, 1-Perfluoropropyl-3-(4-trifluoromethylphenyl)-1,3-propanedione]
Dead: 5 mg./kg. intraperitoneal, sampling at 5 hours | 5 mg./kg. intraperitoneal, sampling at 48 hours | [1] | [3]
